Assay results as given in article PMC5247395 (EJNMMI Research, 2017).

How the values were obtained:
[1] = system: PC-3 PIP/flu tumor-bearing mice; experiment: Biodistribution in PC-3 PIP/flu tumor-bearing mice; settings: i.v.; for PC-3 flu Tumor: PSMA^neg xenograft; for PC-3 PIP Tumor: PSMA^pos xenograft
Method: In vivo experiments were approved by the local veterinarian department and conducted in accordance with the Swiss law of animal protection. All mice were obtained from Charles River Laboratories (Sulzfeld, Germany), at the age of 5–6 weeks. Female, athymic nude Balb/c mice were subcutaneously inoculated with PC-3 PIP cells (6 × 10^6 cells in 100 μL Hank’s balanced salt solution (HBSS) with Ca^2+/Mg^2+) on the right shoulder and with PC-3 flu cells (5 × 10^6 cells in 100 μL HBSS with Ca^2+/Mg^2+) on the left shoulder 2 weeks before the performance of the experiments.
Mice were sacrificed at different time points post injection (p.i.) of the radioligands. Selected tissues and organs were collected, weighed and measured using a γ-counter. The results were decay-corrected and listed as a percentage of the injected activity per gram of tissue mass (% IA/g).

[2] = n-octanol/PBS distribution coefficient (shake-flask); type: physicochemical; settings: n-octanol/PBS pH 7.4, shake-flask
Method: The distribution coefficients (logD values) of the radioligands were determined by a shake-flask method using liquid-liquid extraction followed by phase separation, as previously reported (Additional file 1). In brief, the PSMA ligands were labeled at a specific activity of 5 MBq/nmol. […] The vials were vortexed vigorously for 1 min and then centrifuged for 6 min for phase separation. The concentration of radioactivity in a defined volume of each layer was measured in a γ-counter (Perkin Elmer, Wallac Wizard 1480). The distribution coefficients were expressed as the logarithm of the ratio of counts per minute (cpm) measured in the n-octanol phase to the cpm measure in the PBS phase. The values are reported as the average of at least three independent measurements (± standard deviation, SD), each performed with five replicates. Data were analyzed for significance using a one-way ANOVA test (GraphPad Prism software, version 7). A p value of <0.05 was considered as statistically significant.

PSMA = target: T1, PSMA (Homo sapiens, UniProt Q04609); experiment: Saturation binding assay on PC-3 PIP cells (PSMA affinity, KD)
T1 construct: expressed in transfected cells; host or cells: PC-3 PIP cells (PSMA-positive subline of human PC-3 prostate cancer cells), provided by Prof; Martin Pomper, Johns Hopkins
Method: Determination of the PSMA affinity was performed by saturation binding assays using PC-3 PIP cells and different concentrations of ^nat/44Sc-, ^nat/177Lu-, ^nat/68Ga-PSMA-617, or ^nat/68Ga-PSMA-11, respectively (Additional file 1).
Determination of the KD values was performed by saturation binding assays using PSMA^pos PC-3 PIP cells. After successful radiolabeling of the PSMA ligands, a 2.5-fold molar excess of the corresponding cold metal was added and the reaction mixture was incubated for another 10 min at 95 °C. Quality control was performed again after reaction of the radioligands with the “cold” metal as described in the main manuscript.
The cells were seeded in 48-well-plates (8 x 10^5 cells in 500 uL RPMI medium/well) allowing adhesion and growth overnight at 37 °C and 5% CO2. For the entire experiment, the well-plates were kept on ice. After removal of the supernatant, the cells were washed once with ice-cold PBS pH 7.4 prior to the addition of different concentrations (1 nM-2 µM) of either ^nat/44Sc-, ^nat/177Lu-, ^nat/67/68Ga-PSMA-617 or ^nat/67/68Ga-PSMA-11 in ice-cold RPMI medium without supplements. For the determination of non-specific binding, cell samples were incubated with 2-phosphonomethyl pentanedioic acid (2-PMPA, 200 μM). The well-plates were incubated for 30 min at 4 °C. Then, the supernatants were removed and the cells washed twice with ice-cold PBS followed by addition of NaOH (1 M, 600 µL) to each well. The cell suspensions were transferred to 4 mL tubes for measurement in a γ-counter (Wallac Wizard 1480, Perkin Elmer). The KD values were determined by plotting specific-binding (total binding minus unspecific binding) against the molar concentration of the added radioligands followed by nonlinear regression analysis using GraphPad Prism 7 software.

T1 sequence (Q04609 whole entry): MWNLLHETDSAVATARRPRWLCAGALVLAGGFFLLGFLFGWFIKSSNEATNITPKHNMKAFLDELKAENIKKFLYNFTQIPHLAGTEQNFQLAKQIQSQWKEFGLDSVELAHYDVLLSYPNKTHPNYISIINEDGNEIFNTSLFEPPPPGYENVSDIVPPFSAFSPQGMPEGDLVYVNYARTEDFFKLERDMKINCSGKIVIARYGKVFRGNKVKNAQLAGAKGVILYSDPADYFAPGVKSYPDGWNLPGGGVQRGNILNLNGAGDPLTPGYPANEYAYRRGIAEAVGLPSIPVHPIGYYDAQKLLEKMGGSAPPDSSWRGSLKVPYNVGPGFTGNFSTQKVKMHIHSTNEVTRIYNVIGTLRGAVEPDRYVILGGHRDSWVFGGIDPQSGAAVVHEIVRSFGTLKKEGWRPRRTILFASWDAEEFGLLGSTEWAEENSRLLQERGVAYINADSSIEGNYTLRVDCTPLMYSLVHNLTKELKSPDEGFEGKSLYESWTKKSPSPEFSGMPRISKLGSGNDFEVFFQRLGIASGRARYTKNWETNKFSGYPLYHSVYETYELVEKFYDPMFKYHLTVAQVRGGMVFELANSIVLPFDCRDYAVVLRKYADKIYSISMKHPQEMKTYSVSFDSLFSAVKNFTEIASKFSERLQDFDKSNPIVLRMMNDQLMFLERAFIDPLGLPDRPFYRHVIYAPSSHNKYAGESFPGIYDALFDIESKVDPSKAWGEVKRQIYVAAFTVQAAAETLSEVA

With `O=C([O-])CN1CCN(CC(=O)[O-])CCN(CC(=O)NCC2CCC(C(=O)NC(Cc3ccc4ccccc4c3)C(=O)NCCCCC(NC(=O)NC(CCC(=O)O)C(=O)O)C(=O)O)CC2)CCN(CC(=O)[O-])CC1.[44Sc+3]` (centres unmarked) [^44Sc-PSMA-617] the Blood ([1]; 15 min p.i.) was 6.76 ± 0.28 % IA/g, the Bone ([1]; 15 min p.i.) was 2.75 ± 0.73 % IA/g and the Heart ([1]; 15 min p.i.) was 2.79 ± 0.31 % IA/g. It also gave an Intestines ([1]; 15 min p.i.) of 1.89 ± 0.13 % IA/g, a Kidneys ([1]; 15 min p.i.) of 37.7 ± 0.82 % IA/g and a Liver ([1]; 15 min p.i.) of 1.98 ± 0.19 % IA/g. For the same molecule, the Lung ([1]; 15 min p.i.) was 5.24 ± 0.30 % IA/g, the Muscle ([1]; 15 min p.i.) was 1.37 ± 0.11 % IA/g and the Salivary glands ([1]; 15 min p.i.) was 2.27 ± 0.22 % IA/g. For the same molecule, the Spleen ([1]; 15 min p.i.) was 3.06 ± 0.18 % IA/g, the Stomach ([1]; 15 min p.i.) was 2.25 ± 0.16 % IA/g and the “PC-3 flu Tumor” value ([1]; 15 min p.i.) was 2.14 ± 0.13 % IA/g. The “PC-3 PIP Tumor” value ([1]; 15 min p.i.) was 36.5 ± 7.44 % IA/g, the Blood ([1]; 30 min p.i.) was 2.52 ± 0.43 % IA/g and the Bone ([1]; 30 min p.i.) was 0.92 ± 0.19 % IA/g. The Heart ([1]; 30 min p.i.) was 1.31 ± 0.14 % IA/g, the Intestines ([1]; 30 min p.i.) was 1.05 ± 0.32 % IA/g and the Kidneys ([1]; 30 min p.i.) was 27.8 ± 3.29 % IA/g. For the same molecule, the Liver ([1]; 30 min p.i.) was 0.80 ± 0.05 % IA/g, the Lung ([1]; 30 min p.i.) was 2.06 ± 0.25 % IA/g and the Muscle ([1]; 30 min p.i.) was 1.08 ± 0.20 % IA/g. It also gave a Salivary glands ([1]; 30 min p.i.) of 1.21 ± 0.14 % IA/g, a Spleen ([1]; 30 min p.i.) of 2.20 ± 0.67 % IA/g and a Stomach ([1]; 30 min p.i.) of 0.91 ± 0.17 % IA/g. For the same molecule, the “PC-3 flu Tumor” value ([1]; 30 min p.i.) was 1.51 ± 0.18 % IA/g, the “PC-3 PIP Tumor” value ([1]; 30 min p.i.) was 44.4 ± 7.51 % IA/g and the Bone ([1]; 2 h p.i.) was 0.26 ± 0.13 % IA/g. It also gave a Heart ([1]; 2 h p.i.) of 0.36 ± 0.04 % IA/g, an Intestines ([1]; 2 h p.i.) of 0.15 ± 0.04 % IA/g and a Kidneys ([1]; 2 h p.i.) of 5.97 ± 0.90 % IA/g. It also gave a Liver ([1]; 2 h p.i.) of 0.22 ± 0.03 % IA/g, a Lung ([1]; 2 h p.i.) of 0.37 ± 0.01 % IA/g and a Muscle ([1]; 2 h p.i.) of 0.36 ± 0.11 % IA/g. For the same molecule, the Salivary glands ([1]; 2 h p.i.) was 0.36 ± 0.07 % IA/g, the Spleen ([1]; 2 h p.i.) was 0.81 ± 0.34 % IA/g and the Stomach ([1]; 2 h p.i.) was 0.20 ± 0.05 % IA/g. The “PC-3 flu Tumor” value ([1]; 2 h p.i.) was 0.32 ± 0.16 % IA/g, the “PC-3 PIP Tumor” value ([1]; 2 h p.i.) was 46.7 ± 4.36 % IA/g and the “PC-3 flu Tumor” value ([1]; 4 h p.i.) was 0.40 ± 0.08 % IA/g. The “PC-3 PIP Tumor” value ([1]; 4 h p.i.) was 51.9 ± 4.05 % IA/g, the Blood ([1]; 6 h p.i.) was 0.27 ± 0.02 % IA/g and the Bone ([1]; 6 h p.i.) was 0.65 ± 0.21 % IA/g. The Heart ([1]; 6 h p.i.) was 0.63 ± 0.10 % IA/g, the Intestines ([1]; 6 h p.i.) was 0.13 ± 0.01 % IA/g and the Kidneys ([1]; 6 h p.i.) was 3.09 ± 0.58 % IA/g. For the same molecule, the Liver ([1]; 6 h p.i.) was 0.31 ± 0.02 % IA/g, the Lung ([1]; 6 h p.i.) was 0.51 ± 0.06 % IA/g and the Muscle ([1]; 6 h p.i.) was 0.94 ± 0.08 % IA/g. For the same molecule, the Salivary glands ([1]; 6 h p.i.) was 0.75 ± 0.17 % IA/g, the Spleen ([1]; 6 h p.i.) was 0.90 ± 0.03 % IA/g and the Stomach ([1]; 6 h p.i.) was 0.39 ± 0.07 % IA/g. For the same molecule, the “PC-3 flu Tumor” value ([1]; 6 h p.i.) was 0.24 ± 0.02 % IA/g, the “PC-3 PIP Tumor” value ([1]; 6 h p.i.) was 52.0 ± 8.42 % IA/g and the LogD values [2] was −4.21 ± 0.04. The Kd (PSMA; 30 min at 4 °C, saturation binding) was 33 ± 12 nM and the “Relative PSMA-binding affinity” value (PSMA; inverse molar ratio of average KD values, ^177Lu-PSMA-617 set to 1) was 1.2.
